Source: patent US20260262643A1, “HERBICIDAL BENZOXAZINES” (FMC CORPORATION, priority 2022, published 2026)

What was measured:
[1] = tested on: corn; assay: Test C preemergence; format: in vivo, Zea mays
Method in brief: (§1)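 Visual injury ratings on a 0–100 scale (100 = complete control) were made against untreated controls 10 days after treatment in the greenhouse. Compounds, formulated with surfactant in non-phytotoxic solvent, were sprayed on soil preemergence or onto one- to two-leaf plants 2–10 cm tall postemergence.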

[2] = tested on: sedge, umbrella; assay: Test D flooded paddy test; format: in vivo, Cyperus difformis; settings: 250 g ai/ha, applied to paddy water, visual rating after 13 to 14 days, scale 0 to 100 (0 no effect, 100 complete control)
Method in brief: (§2)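 Plants grown to the 2-leaf stage; pots flooded to 3 cm above soil at treatment and held at that depth throughout. Test compounds applied directly to the paddy water. After 13 to 14 days in a greenhouse, response was rated visually versus controls on a 0 (no effect) to 100 (complete control) scale.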

[3] = tested on: rice; assay: Test D flooded paddy test; format: in vivo, Oryza sativa; settings: 250 g ai/ha, applied to paddy water, visual rating after 13 to 14 days, scale 0 to 100 (0 no effect, 100 complete control)
Method in brief: as §2

[4] = tested on: corn; assay: Test C postemergence; format: in vivo, Zea mays; settings: 10 days, 0 to 100 scale (0 no effect, 100 complete control)
Method in brief: as §1

[5] = tested on: wheat; assay: Test C postemergence; format: in vivo, Triticum aestivum; settings: 10 days, 0 to 100 scale (0 no effect, 100 complete control)
Method in brief: as §1

[6] = tested on: soybean; assay: Test C postemergence; format: in vivo, Glycine max; settings: 10 days, 0 to 100 scale (0 no effect, 100 complete control)
Method in brief: as §1

[7] = tested on: barnyardgrass; assay: Test C postemergence; format: in vivo, Echinochloa crusgalli; settings: 10 days, 0 to 100 scale (0 no effect, 100 complete control)
Method in brief: as §1

[8] = tested on: barnyardgrass; assay: Test D flooded paddy test; format: in vivo, Echinochloa crus-galli; settings: 250 g ai/ha, applied to paddy water, visual rating after 13 to 14 days, scale 0 to 100 (0 no effect, 100 complete control)
Method in brief: as §2

[9] = tested on: green foxtail; assay: Test C preemergence; format: in vivo, Setaria viridis
Method in brief: as §1

[10] = tested on: oat, wild; assay: Test C postemergence; format: in vivo, Avena fatua; settings: 10 days, 0 to 100 scale (0 no effect, 100 complete control)
Method in brief: as §1

[11] = tested on: wheat; assay: Test C preemergence; format: in vivo, Triticum aestivum
Method in brief: as §1

[12] = tested on: green foxtail; assay: Test C postemergence; format: in vivo, Setaria viridis; settings: 10 days, 0 to 100 scale (0 no effect, 100 complete control)
Method in brief: as §1

[13] = tested on: barnyardgrass; assay: Test C preemergence; format: in vivo, Echinochloa crusgalli
Method in brief: as §1

[14] = tested on: ryegrass, Italian; assay: Test C postemergence; format: in vivo, Lolium multiflorum; settings: 10 days, 0 to 100 scale (0 no effect, 100 complete control)
Method in brief: as §1

[15] = tested on: soybean; assay: Test C preemergence; format: in vivo, Glycine max
Method in brief: as §1

[16] = tested on: ragweed; assay: Test C postemergence; format: in vivo, Ambrosia artemisiifolia; settings: 10 days, 0 to 100 scale (0 no effect, 100 complete control)
Method in brief: as §1

[17] = tested on: ryegrass, Italian; assay: Test C preemergence; format: in vivo, Lolium multiflorum
Method in brief: as §1

[18] = tested on: pigweed, palmer; assay: Test C preemergence; format: in vivo, Amaranthus palmeri
Method in brief: as §1

[19] = tested on: ragweed; assay: Test C preemergence; format: in vivo, Ambrosia artemisiifolia
Method in brief: as §1

[20] = tested on: ducksalad; assay: Test D flooded paddy test; format: in vivo, Heteranthera limosa; settings: 250 g ai/ha, applied to paddy water, visual rating after 13 to 14 days, scale 0 to 100 (0 no effect, 100 complete control)
Method in brief: as §2

[21] = tested on: blackgrass; assay: Test C preemergence; format: in vivo, Alopecurus myosuroides
Method in brief: as §1

[22] = tested on: pigweed, palmer; assay: Test C postemergence; format: in vivo, Amaranthus palmeri; settings: 10 days, 0 to 100 scale (0 no effect, 100 complete control)
Method in brief: as §1

[23] = tested on: kochia; assay: Test C preemergence; format: in vivo, Bassia scoparia
Method in brief: as §1

[24] = tested on: galium; assay: Test C postemergence; format: in vivo, Galium aparine; settings: 10 days, 0 to 100 scale (0 no effect, 100 complete control)
Method in brief: as §1

[25] = tested on: kochia; assay: Test C postemergence; format: in vivo, Bassia scoparia; settings: 10 days, 0 to 100 scale (0 no effect, 100 complete control)
Method in brief: as §1

[26] = tested on: blackgrass; assay: Test C postemergence; format: in vivo, Alopecurus myosuroides; settings: 10 days, 0 to 100 scale (0 no effect, 100 complete control)
Method in brief: as §1

[27] = tested on: horseweed; assay: Test C postemergence; format: in vivo, Erigeron canadensis; settings: 10 days, 0 to 100 scale (0 no effect, 100 complete control)
Method in brief: as §1

[28] = 500 g ai/ha, preemergence, 0 to 100 scale (0 no effect, 100 complete control)
[29] = Preemergence, 125 g ai/ha, 0 to 100 scale, 0 no effect, 100 complete control

C[C@H]1CN(C(=O)c2cccc(-n3cnc(OS(C)(=O)=O)n3)c2)c2cccc(Cl)c2O1 [Compound 356]
70: Plant response rating, Ryegrass, Italian [17, 29] | Plant response rating, Pigweed, Palmer ([22]; 500 g ai/ha, postemergence)
20: Plant response rating, Corn ([4]; 500 g ai/ha, postemergence) | Plant response rating, Wheat ([5]; 500 g ai/ha, postemergence) | Plant response rating, Barnyardgrass ([7]; 500 g ai/ha, postemergence) | Plant response rating, Oat, Wild ([10]; 500 g ai/ha, postemergence) | Plant response rating, Ragweed ([16]; Postemergence, 125 g ai/ha) | Blackgrass plant response rating [21, 28]
50: Barnyardgrass plant response rating [13, 28] | Plant response rating, Kochia ([25]; Postemergence, 125 g ai/ha) | Plant response rating, Blackgrass ([26]; 500 g ai/ha, postemergence)
30: Plant response rating, Foxtail, Green [9, 29] | Plant response rating, Foxtail, Green ([12]; 500 g ai/ha, postemergence) | Plant response rating, Ryegrass, Italian ([14]; Postemergence, 125 g ai/ha) | Plant response rating, Ragweed ([16]; 500 g ai/ha, postemergence) | Plant response rating, Horseweed ([27]; Postemergence, 125 g ai/ha)
80: Plant response rating, Ryegrass, Italian ([14]; 500 g ai/ha, postemergence) | Ryegrass, Italian plant response rating [17, 28] | Plant response rating, Kochia ([25]; 500 g ai/ha, postemergence)
90: Foxtail, Green plant response rating [9, 28] | Kochia plant response rating [23, 28] | Plant response rating, Galium ([24]; Postemergence, 125 g ai/ha)
10: Corn plant response rating [1, 28] | Plant response rating, Corn ([4]; Postemergence, 125 g ai/ha) | Plant response rating, Wheat ([5]; Postemergence, 125 g ai/ha) | Plant response rating, Barnyardgrass ([7]; Postemergence, 125 g ai/ha) | Plant response rating, Oat, Wild ([10]; Postemergence, 125 g ai/ha) | Plant response rating, Foxtail, Green ([12]; Postemergence, 125 g ai/ha) | Plant response rating, Barnyardgrass [13, 29]
100: Plant response rating, Soybean ([6]; 500 g ai/ha, postemergence) | Plant response rating, Soybean ([6]; Postemergence, 125 g ai/ha) | Pigweed, Palmer plant response rating [18, 28] | Plant response rating, Galium ([24]; 500 g ai/ha, postemergence)
0: Plant response rating, Corn [1, 29] | Plant response rating, Sedge, Umbrella (Flood) [2] | Plant response rating, Rice (Flood) [3] | Plant response rating, Barnyardgrass (Flood) [8] | Wheat plant response rating [11, 28] | Plant response rating, Wheat [11, 29] | Soybean plant response rating [15, 28] | Plant response rating, Soybean [15, 29] | Ragweed plant response rating [19, 28] | Plant response rating, Ragweed [19, 29] | Plant response rating, Ducksalad (Flood) [20] | Plant response rating, Blackgrass [21, 29] | Plant response rating, Kochia [23, 29] | Plant response rating, Blackgrass ([26]; Postemergence, 125 g ai/ha)
40: Plant response rating, Pigweed, Palmer [18, 29] | Plant response rating, Pigweed, Palmer ([22]; Postemergence, 125 g ai/ha) | Plant response rating, Horseweed ([27]; 500 g ai/ha, postemergence)
